# Results: patent publication US8637484B2, “Modulation of growth hormone receptor expression and insulin-like growth factor expression” (Antisense Therapeutic Limited, priority 2003, dated 2014)
# In the oligonucleotide strings, read from the 5' end, every base follows the letter of its sugar. An asterisk marks phosphorothioate; unmarked linkages are phosphodiester. Other units and linkages are bracketed, terminal groups are in braces. A string of capitals states the bases alone. e = 2'-O-(2-methoxyethyl) (MOE); [5mC] = 5-methylcytosine; d = 2'-deoxy (DNA)
# System: human growth hormone receptor mRNA
# Test: Inhibition of human growth hormone receptor mRNA levels in MCF7 cells, quantitative real-time PCR
# Type: cell-based
# Parameters: concentration or dose not given beside the values
# Settings: averages from three experiments
# Experimental: The human breast carcinoma cell line MCF-7 was obtained from the American Type Culture Collection (Manassas, Va.). MCF-7 cells were routinely cultured in DMEM low glucose (Gibco/Life Technologies, Gaithersburg, Md.) supplemented with 10% fetal calf serum (Gibco/Life Technologies, Gaithersburg, Md.). Cells were routinely passaged by trypsinization and dilution when they reached 90% confluence. Cells were seeded into 96-well plates (Falcon-Primaria #3872) at a density of 7000 cells/well for use in RT-PCR analysis.
# When cells reached 65-75% confluency, they were treated with oligonucleotide. For cells grown in 96-well plates, wells were washed once with 100 μL OPTI-MEM™-1 reduced-serum medium (Invitrogen Corporation, Carlsbad, Calif.) and then treated with 130 μL of OPTI-MEM™-1 containing 3.75 μg/mL LIPOFECTIN™ (Invitrogen Corporation, Carlsbad, Calif.) and the desired concentration of oligonucleotide. Cells are treated and data are obtained in triplicate. After 4-7 hours of treatment at 37° C., the medium was replaced with fresh medium. Cells were harvested 16-24 hours after oligonucleotide treatment.
# Total RNA was isolated using an RNEASY 96™ kit and buffers purchased from Qiagen Inc. (Valencia, Calif.) following the manufacturer's recommended procedures. Briefly, for cells grown on 96-well plates, growth medium was removed from the cells and each well was washed with 200 μL cold PBS. 150 μL Buffer RLT was added to each well and the plate vigorously agitated for 20 seconds. 150 μL of 70% ethanol was then added to each well and the contents mixed by pipetting three times up and down. The samples were then transferred to the RNEASY 96™ well plate attached to a QIAVAC™ manifold fitted with a waste collection tray and attached to a vacuum source. Vacuum was applied for 1 minute. 500 μL of Buffer RW1 was added to each well of the RNEASY 96™ plate and incubated for 15 minutes and the vacuum was again applied for 1 minute. An additional 500 μL of Buffer RW1 was added to each well of the RNEASY 96™ plate and the vacuum was applied for 2 minutes. 1 mL of Buffer RPE was then added to each well of the RNEASY 96™ plate and the vacuum applied for a period of 90 seconds. The Buffer RPE wash was then repeated and the vacuum was applied for an additional 3 minutes. The plate was then removed from the QIAVAC™ manifold and blotted dry on paper towels. The plate was then re-attached to the QIAVAC™ manifold fitted with a collection tube rack containing 1.2 mL collection tubes. RNA was then eluted by pipetting 140 μL of RNAse free water into each well, incubating 1 minute, and then applying the vacuum for 3 minutes.
# Quantitation of growth hormone receptor mRNA levels was accomplished by real-time quantitative PCR using the ABI PRISM™ 7600, 7700, or 7900 Sequence Detection System (PE-Applied Biosystems, Foster City, Calif.) according to manufacturer's instructions. This is a closed-tube, non-gel-based, fluorescence detection system which allows high-throughput quantitation of polymerase chain reaction (PCR) products in real-time. As opposed to standard PCR in which amplification products are quantitated after the PCR is completed, products in real-time quantitative PCR are quantitated as they accumulate. This is accomplished by including in the PCR reaction an oligonucleotide probe that anneals specifically between the forward and reverse PCR primers, and contains two fluorescent dyes. A reporter dye (e.g., FAM or JOE, obtained from either PE-Applied Biosystems, Foster City, Calif., Operon Technologies Inc., Alameda, Calif. or Integrated DNA Technologies Inc., Coralville, Iowa) is attached to the 5′ end of the probe and a quencher dye (e.g., TAMRA, obtained from either PE-Applied Biosystems, Foster City, Calif., Operon Technologies Inc., Alameda, Calif. or Integrated DNA Technologies Inc., Coralville, Iowa) is attached to the 3′ end of the probe. When the probe and dyes are intact, reporter dye emission is quenched by the proximity of the 3′ quencher dye. […]
row,Substance,% INHIB [%]
1,272323 (antisense eT*eG*eT*eG*eT*d[5mC]*dT*dG*dA*dT*dT*d[5mC]*d[5mC]*dT*d[5mC]*eA*eG*eT*e[5mC]*eT) [compound 272323],67
2,272324 (antisense eT*eA*eT*eG*eT*d[5mC]*dA*dT*dT*dG*dG*d[5mC]*dA*dT*dT*eG*eA*eA*eA*eT) [compound 272324],53
3,272325 (antisense eA*eA*eG*eG*e[5mC]*dA*dT*dA*dA*dG*dA*dG*dA*dT*d[5mC]*eT*eG*e[5mC]*eT*eT) [compound 272325],66
4,272326 (antisense eA*e[5mC]*eT*e[5mC]*eA*dG*d[5mC]*dT*d[5mC]*d[5mC]*dT*dT*d[5mC]*dA*dG*eT*eA*eG*eG*eA) [compound 272326],77
5,272327 (antisense eG*eG*eA*e[5mC]*eA*dT*d[5mC]*d[5mC]*d[5mC]*dT*dG*d[5mC]*d[5mC]*dT*dT*eA*eT*eT*e[5mC]*eT) [compound 272327],60
6,272328 (antisense eG*eG*e[5mC]*eA*eT*dT*dG*dT*d[5mC]*d[5mC]*dA*dT*dA*dA*dG*eG*eA*eA*eG*eT) [compound 272328],85
7,272329 (antisense eA*e[5mC]*eT*eT*eT*dT*dT*dG*dG*d[5mC]*dA*dT*d[5mC]*dT*dG*e[5mC]*e[5mC]*eT*e[5mC]*eA) [compound 272329],63
8,272330 (antisense eG*eA*eT*eG*e[5mC]*dA*d[5mC]*dT*dT*dT*dT*dT*dG*dG*d[5mC]*eA*eT*e[5mC]*eT*eG) [compound 272330],47
9,272331 (antisense e[5mC]*eA*eG*eT*e[5mC]*dG*d[5mC]*dA*dT*dT*dG*dA*dG*dT*dA*eT*eG*eA*eG*eG) [compound 272331],67
10,272332 (antisense e[5mC]*eT*e[5mC]*eT*eT*dT*dG*dT*d[5mC]*dA*dG*dG*d[5mC]*dA*dA*eG*eG*eG*e[5mC]*eA) [compound 272332],75
11,272333 (antisense eG*eT*eG*e[5mC]*eT*d[5mC]*dA*d[5mC]*dA*dT*dA*dG*d[5mC]*d[5mC]*dA*e[5mC]*eA*eT*eG*eA) [compound 272333],72
12,272334 (antisense eA*eA*eG*eA*eA*dA*dG*dG*d[5mC]*dT*dA*dA*dG*dG*d[5mC]*eA*eT*eG*eA*eT) [compound 272334],61
13,272335 (antisense eA*eA*eA*eT*eA*d[5mC]*dG*dT*dA*dG*d[5mC]*dT*d[5mC]*dT*dT*eG*eG*eG*eA*eA) [compound 272335],47
14,272336 (antisense e[5mC]*eA*eA*eT*e[5mC]*dA*d[5mC]*dT*dG*d[5mC]*dT*dA*d[5mC]*dT*dA*eA*eA*e[5mC]*eA*eG) [compound 272336],69
15,272337 (antisense eA*eA*eA*e[5mC]*eA*dT*dA*dG*d[5mC]*d[5mC]*dA*dT*dT*d[5mC]*dA*eA*eT*eG*e[5mC]*eT) [compound 272337],39
16,272338 (antisense eG*eT*eG*e[5mC]*eT*dA*dT*dG*dG*dT*dT*dT*dG*d[5mC]*dA*eT*eT*e[5mC]*eA*eA) [compound 272338],78
17,272339 (antisense eG*eT*eT*eT*eT*dA*d[5mC]*dA*dT*dA*dT*d[5mC]*d[5mC]*dA*dA*eA*e[5mC]*eT*eA*eT) [compound 272339],72
18,272340 (antisense e[5mC]*eA*eT*e[5mC]*eA*dA*d[5mC]*d[5mC]*dA*dA*dG*dA*dT*dT*dT*eG*eG*eT*eG*eA) [compound 272340],69
19,272341 (antisense eG*eA*eG*eG*e[5mC]*dT*dA*dT*dA*dG*dA*dT*d[5mC]*dT*dT*eA*eT*e[5mC]*eT*e[5mC]) [compound 272341],65
20,272342 (antisense eT*eA*eG*eT*eG*dA*dG*dA*dA*dA*dG*dA*dA*dA*dG*eT*eT*eT*e[5mC]*eT) [compound 272342],45

row,Substance,% INHIB [%]
1,272343 (antisense eA*eA*eT*eG*e[5mC]*dT*d[5mC]*dT*d[5mC]*dA*dA*dG*dA*dA*dT*eG*eA*eT*eG*eT) [compound 272343],48
2,272344 (antisense eA*e[5mC]*eA*e[5mC]*eT*d[5mC]*dA*dA*dT*dT*d[5mC]*dT*dA*dG*d[5mC]*eT*eT*eT*eT*e[5mC]) [compound 272344],60
3,272345 (antisense e[5mC]*eA*eT*e[5mC]*eT*dA*dT*dT*dA*d[5mC]*dA*dA*dA*dT*dA*eA*e[5mC]*eA*eT*eG) [compound 272345],24
4,272346 (antisense e[5mC]*eT*e[5mC]*eT*eT*dG*dG*dA*dG*dA*dA*dA*dA*d[5mC]*d[5mC]*eA*eT*eA*eG*e[5mC]) [compound 272346],67
5,272347 (antisense eT*e[5mC]*eT*eA*e[5mC]*dA*d[5mC]*dT*dG*dA*dT*dG*dA*dT*dA*e[5mC]*eT*eT*eT*eA) [compound 272347],62
6,272348 (antisense e[5mC]*eA*e[5mC]*eA*eG*d[5mC]*dT*dT*dT*dG*dA*dA*dT*dT*dG*eA*eA*eT*eT*eA) [compound 272348],57
7,272349 (antisense eA*eG*eT*e[5mC]*eT*dT*d[5mC]*d[5mC]*dA*dA*dA*d[5mC]*dA*d[5mC]*dA*e[5mC]*eA*eG*e[5mC]*eT) [compound 272349],68
8,272350 (antisense eA*eG*eG*e[5mC]*eT*dG*dT*dT*dG*dT*dG*dA*dA*dA*dT*eA*eG*eT*eA*eA) [compound 272350],67
9,272351 (antisense eA*eT*eA*eG*eA*dA*dA*dT*dG*dT*dT*dG*dT*d[5mC]*dA*eG*eG*e[5mC]*eT*eG) [compound 272351],57
10,272352 (antisense e[5mC]*e[5mC]*eA*eA*eA*dA*dT*dG*dA*d[5mC]*dA*dT*dT*d[5mC]*dT*eG*eA*eG*eA*e[5mC]) [compound 272352],77
11,272353 (antisense eA*eT*eA*eA*eT*dG*dG*d[5mC]*dT*dT*dA*dT*dG*dT*dG*eG*e[5mC]*e[5mC]*eA*e[5mC]) [compound 272353],72
12,272354 (antisense eA*eG*eT*eT*eA*dT*dG*dT*dG*dA*d[5mC]*d[5mC]*d[5mC]*dT*dG*eA*eT*eT*eG*eA) [compound 272354],65
13,272355 (antisense eT*eT*eG*eA*eG*dT*dG*dT*dT*d[5mC]*d[5mC]*dT*dA*dA*dA*eA*eT*eG*eA*eA) [compound 272355],24
14,272356 (antisense eA*eT*eG*eG*eA*dG*dG*d[5mC]*dT*dG*dG*dA*dG*dG*dT*eT*e[5mC]*eA*eA*eA) [compound 272356],63
15,272357 (antisense eT*eA*eG*eG*eG*dT*d[5mC]*d[5mC]*dA*dT*d[5mC]*dT*dT*dT*d[5mC]*eA*eA*eG*eA*e[5mC]) [compound 272357],62
16,272358 (antisense eT*e[5mC]*eT*e[5mC]*e[5mC]*dA*dG*dA*dT*dA*dG*dA*dA*dT*d[5mC]*eT*eA*eA*eA*e[5mC]) [compound 272358],53
17,272359 (antisense eT*e[5mC]*e[5mC]*eA*eA*dA*dT*dA*dT*dT*d[5mC]*dT*dG*dG*dT*eA*e[5mC]*eT*eT*eT) [compound 272359],72
18,272360 (antisense eT*eA*eT*eT*eA*dG*dT*dT*dA*d[5mC]*d[5mC]*dT*dT*dG*dA*eG*eG*eA*eG*eA) [compound 272360],0
19,272361 (antisense eA*eT*eT*eT*eT*d[5mC]*d[5mC]*dT*dT*d[5mC]*d[5mC]*dT*dA*dG*dA*eA*eA*eA*eT*eA) [compound 272361],10
